Inhibition of growth and pest or weed control data for 36 compounds are collected here from patent US20210002232A1, “HETEROCYCLIC COMPOUNDS AS FUNGICIDES” (PI INDUSTRIES LTD., priority 2018, published 2021).

One test has as its system Pyricularia oryzae. Kind of test: microbe, parasite or virus in culture. The format is cell-based. The conditions noted are these: 168 h, read-out: control.
Consider `CS(=O)(=NC(=O)c1ccc(C2=NOC(C(F)(F)F)N2)cc1)c1ccc(Cl)cc1` (stereo not drawn) [Compound 1, N-((4-chlorophenyl)(methyl)(oxo)-λ^6-sulfaneylidene)-4-(5-(trifluoromethyl)-4,5-dihydro-1,2,4-oxadiazol-3-yl)benzamide], for which the inhibition of growth at 300 ppm is greater than 70%.

`CN(CCOc1ccccc1)C(=O)c1ccc(-c2noc(C(F)F)n2)cc1` [Compound 17, 4-(5-(difluoromethyl)-1,2,4-oxadiazol-3-yl)-N-methyl-N-(2-phenoxyethyl)benzamide]: the inhibition of growth at 300 ppm is greater than 70%.

For the compound `CS(=O)(=NCc1ccc(C2=NOC(C(F)F)N2)cc1)c1ccccc1` (stereo not drawn) [Compound 27, ((4-(5-(difluoromethyl)-4,5-dihydro-1,2,4-oxadiazol-3-yl)benzyl)imino)(methyl)(phenyl)-λ^6-sulfanone], the inhibition of growth at 300 ppm is greater than 70%.

Regarding `CS(=O)(=NCc1ccc(-c2nc(C(F)F)n[nH]2)cc1)c1ccccc1` (stereo not drawn) [Compound 42, ((4-(3-(difluoromethyl)-1h-1,2,4-triazol-5-yl)benzyl)imino)(methyl)(phenyl)-λ^6-sulfanone], the inhibition of growth at 300 ppm was greater than 70%.

In the next test the test system is Phakopsora pachyrhizi. As to the kind of experiment: Phakopsora pachyrhizi test in soybean, preventive spray in greenhouse. The format is in vivo. The conditions noted are these: preventive spray on soybean plants, inoculated one day after treatment, compared to the untreated check, read-out: control (efficacy from disease severity rating).
For the compound `CS(=O)(=NC(=O)c1ccc(C2=NOC(C(F)(F)F)N2)cc1)c1ccc(Cl)cc1` (stereo not drawn) [Compound 1, N-((4-chlorophenyl)(methyl)(oxo)-λ^6-sulfaneylidene)-4-(5-(trifluoromethyl)-4,5-dihydro-1,2,4-oxadiazol-3-yl)benzamide], the pest or weed control at 500 ppm is greater than 90%.

With `CC(C)(C)C(=O)NCc1ccc(-c2n[nH]c(C(F)(F)F)n2)cc1` [Compound 3, N-(4-(5-(trifluoromethyl)-1h-1,2,4-triazol-3-yl)benzyl)pivalamide], the pest or weed control at 500 ppm was greater than 90%.

Turning to `CC(C(=O)Nc1ccc(C2=NOC(C(F)(F)F)N2)cc1)c1ccccc1` (stereo not drawn) [Compound 20, 2-phenyl-N-(4-(5-(trifluoromethyl)-4,5-dihydro-1,2,4-oxadiazol-3-yl)phenyl)propanamide], the pest or weed control at 500 ppm is greater than 90%.

With `CN(Cc1ccc(C2=NOC(C(F)(F)F)N2)cc1)C(=O)C1CC1` (stereo not drawn) [Compound 21, N-methyl-N-(4-(5-(trifluoromethyl)-4,5-dihydro-1,2,4-oxadiazol-3-yl)benzyl)cyclopropanecarboxamide], the pest or weed control at 500 ppm was greater than 90%.

On to `CN(Cc1ccc(C2=NOC(C(F)(F)F)N2)cc1)C(=O)C1CCC1` (stereo not drawn) [Compound 22, N-methyl-N-(4-(5-(trifluoromethyl)-4,5-dihydro-1,2,4-oxadiazol-3-yl)benzyl)cyclobutanecarboxamide], for which the pest or weed control at 500 ppm is greater than 90%.

In the case of `O=C(Cc1ccccc1)Nc1ccc(C2=NOC(C(F)(F)F)N2)cc1` (stereo not drawn) [Compound 23, 2-phenyl-N-(4-(5-(trifluoromethyl)-4,5-dihydro-1,2,4-oxadiazol-3-yl)phenyl)acetamide], the pest or weed control at 500 ppm was greater than 90%.

`COc1ccc(S(C)(=O)=NC(=O)c2ccc(C3=NOC(C(F)(F)F)N3)cc2)cc1` (stereo not drawn) [Compound 25, N-((4-methoxyphenyl)(methyl)(oxo)-λ^6-sulfaneylidene)-4-(5-(trifluoromethyl)-4,5-dihydro-1,2,4-oxadiazol-3-yl)benzamide]: the pest or weed control at 500 ppm is greater than 90%.

For the compound `O=C(Nc1ccc(Cl)cc1F)c1ccc(C2=NOC(C(F)(F)F)N2)cc1` (stereo not drawn) [Compound 29, N-(4-chloro-2-fluorophenyl)-4-(5-(trifluoromethyl)-4,5-dihydro-1,2,4-oxadiazol-3-yl)benzamide], the pest or weed control at 500 ppm was greater than 90%.

In the case of `Cn1nc(C(F)(F)F)nc1-c1ccc(S(=O)(=O)c2ccccc2)cc1` [Compound 34, 1-methyl-5-(4-(phenylsulfonyl)phenyl)-3-(trifluoromethyl)-1h-1,2,4-triazole], the pest or weed control at 500 ppm is greater than 90%.

For the compound `CS(=O)(=Nc1ccc(-c2n[nH]c(C(F)(F)F)n2)cc1)c1ccc(C(F)(F)F)cc1` (stereo not drawn) [Compound 40, Methyl((4-(5-(trifluoromethyl)-1h-1,2,4-triazol-3-yl)phenyl)imino)(4-(trifluoromethyl)phenyl)-λ^6-sulfanone], the pest or weed control at 500 ppm is greater than 90%.

As to `COc1ccc(S(C)(=O)=Nc2ccc(-c3n[nH]c(C(F)(F)F)n3)cc2)cc1` (stereo not drawn) [Compound 43, (4-methyoxyphenyl)(methyl)((4-(5-(trifluoromethyl)-1h-1,2,4-triazol-3-yl)phenyl)imino)-λ^6-sulfanone], the pest or weed control at 500 ppm is greater than 90%.

For `O=C(Nc1ccc(F)cc1F)c1ccc(-c2nc(C(F)(F)F)n[nH]2)cc1` [Compound 44, N-(2,4-difluorophenyl)-4-(3-(trifluoromethyl)-1h-1,2,4-triazol-5-yl)benzamide], the pest or weed control at 500 ppm is greater than 90%.

Regarding `CS(=O)(=NCc1ccc(-c2n[nH]c(C(F)(F)F)n2)cc1)c1cccnc1` (stereo not drawn) [Compound 47, Methyl(pyridin-3-yl)((4-(5-(trifluoromethyl)-1h-1,2,4-triazol-3-yl)benzyl)imino)-λ^6-sulfanone], the pest or weed control at 500 ppm was greater than 90%.

On to `O=C(O)c1ccc(-c2cc(C(F)(F)F)on2)cc1` [Compound 56, 4-(5-(trifluoromethyl)isoxazol-3-yl)benzoic acid], for which the pest or weed control at 500 ppm was greater than 90%.

For `O=C(Nc1ccc(F)cc1F)c1ccc(-c2cc(C(F)(F)F)on2)cc1` [Compound 57, N-(2,4-difluorophenyl)-4-(5-(trifluoromethyl)isoxazol-3-yl)benzamide], the pest or weed control at 500 ppm was greater than 90%.

Consider `CN(CCOc1ccccc1)C(=O)c1ccc(-c2cc(C(F)(F)F)on2)cc1` [Compound 65, N-methyl-N-(2-phenoxyethyl)-4-(5-(trifluoromethyl)isoxazol-3-yl)benzamide], for which the pest or weed control at 500 ppm was greater than 90%.

As to `CS(=O)(=NC(=O)c1ccc(-c2cc(C(F)(F)F)on2)cc1)c1ccccc1` (stereo not drawn) [Compound 66, N-(methyl(oxo)(phenyl)-λ^6-sulfaneylidene)-4-(5-(trifluoromethyl)isoxazol-3-yl)benzamide], the pest or weed control at 500 ppm is greater than 90%.

In the case of `CS(=O)(=NC(=O)c1ccc(-c2coc(C(F)(F)F)n2)cc1)c1ccc(F)cc1` (stereo not drawn) [Compound 69, N-((4-fluorophenyl)(methyl)(oxo)-λ^6-sulfaneylidene)-4-(2-(trifluoromethyl)oxazol-4-yl)benzamide], the pest or weed control at 500 ppm is greater than 90%.

Regarding `O=C(Nc1ccc(F)cc1F)c1ccc(-c2nc(C(F)(F)F)oc2Cl)cc1` [Compound 70, 4-(5-chloro-2-(trifluoromethyl)oxazol-4-yl)-N-(2,4-difluorophenyl)benzamide], the pest or weed control at 500 ppm is greater than 90%.

Regarding `CN(CCOc1ccccc1)C(=O)c1ccc(-c2nc(C(F)(F)F)oc2Cl)cc1` [Compound 71, 4-(5-chloro-2-(trifluoromethyl)oxazol-4-yl)-N-methyl-N-(2-phenoxyethyl)benzamide], the pest or weed control at 500 ppm is greater than 90%.

Regarding `CS(=O)(=NC(=O)c1ccc(-c2coc(C(F)(F)F)n2)cc1)c1ccc(Cl)cc1` (stereo not drawn) [Compound 72, N-((4-chlorophenyl)(methyl)(oxo)-λ^6-sulfaneylidene)-4-(2-(trifluoromethyl)oxazol-4-yl)benzamide], the pest or weed control at 500 ppm is greater than 90%.

For the compound `CS(=O)(=NC(=O)c1ccc(-c2nc(C(F)(F)F)oc2Cl)cc1)c1ccccc1` (stereo not drawn) [Compound 74, 4-(5-chloro-2-(trifluoromethyl)oxazol-4-yl)-N-(methyl(oxo)(phenyl)-λ^6-sulfaneylidene)benzamide], the pest or weed control at 500 ppm was greater than 90%.

In the case of `O=C(Nc1ccc(F)cc1F)c1ccc(-c2coc(C(F)(F)F)n2)cc1` [Compound 77, N-(2,4-difluorophenyl)-4-(2-(trifluoromethyl)oxazol-4-yl)benzamide], the pest or weed control at 500 ppm is greater than 90%.

For `O=C(Nc1c(F)cccc1F)c1ccc(-c2coc(C(F)(F)F)n2)cc1` [Compound 80, N-(2,6-difluorophenyl)-4-(2-(trifluoromethyl)oxazol-4-yl)benzamide], the pest or weed control at 500 ppm was greater than 90%.

For `CS(=O)(=NC(=O)c1ccc(-c2coc(C(F)(F)F)n2)cc1)c1ccccc1` (stereo not drawn) [Compound 83, N-(methyl(oxo)(phenyl)-λ^6-sulfaneylidene)-4-(2-(trifluoromethyl)oxazol-4-yl)benzamide], the pest or weed control at 500 ppm was greater than 90%.

The test system of another test is Alternaria solani. As to the kind of experiment: Alternaria solani (early blight of tomato/potato) mycelial radial growth on Potato Dextrose Agar. The conditions noted are these: 168 h, read-out: control.
Description: Compounds were dissolved in 0.3% DMSO & then added to Potato Dextrose Agar medium just prior to dispensing it into Petri dishes. 5 ml medium with compound in the desired concentration was dispensed into 60 mm sterile petri-plates. After solidification each plate was seeded with 5 mm size mycelial disc taken form periphery of actively growing virulent culture plate. Plates were incubated in growth chambers at 25° C. temperature and 60% relative humidity for seven days and radial growth was measured.
On to `CN(CCOc1ccccc1)C(=O)c1ccc(-c2n[nH]c(C(F)(F)F)n2)cc1` [Compound 11, N-methyl-N-(2-phenoxyethyl)-4-(5-(trifluoromethyl)-1h-1,2,4-triazol-3-yl)benzamide], for which the inhibition of growth at 300 ppm is greater than 70%.

As to `COc1ccc(S(C)(=O)=NC(=O)c2ccc(C3=NOC(C(F)(F)F)N3)cc2)cc1` (stereo not drawn) [Compound 25, N-((4-methoxyphenyl)(methyl)(oxo)-λ^6-sulfaneylidene)-4-(5-(trifluoromethyl)-4,5-dihydro-1,2,4-oxadiazol-3-yl)benzamide], the inhibition of growth at 300 ppm was greater than 70%.

Turning to `CS(=O)(=Nc1ccc(C2=NOC(C(F)(F)F)N2)cc1)c1ccc(C(F)(F)F)cc1` (stereo not drawn) [Compound 26, Methyl((4-(5-(trifluoromethyl)-4,5-dihydro-1,2,4-oxadiazol-3-yl)phenyl)imino)(4-(trifluoromethyl)phenyl)-λ^6-sulfanone], the inhibition of growth at 300 ppm was greater than 70%.

On to `O=C(Cc1ccccc1)Nc1ccc(-c2noc(C(F)F)n2)cc1` [Compound 31, N-(4-(5-(difluoromethyl)-1,2,4-oxadiazol-3-yl)phenyl)-2-phenylacetamide], for which the inhibition of growth at 300 ppm is greater than 70%.

In the case of `CN(Cc1ccc(-c2n[nH]c(C(F)(F)F)n2)cc1)C(=O)C1CC1` [Compound 37, N-methyl-N-(4-(5-(trifluoromethyl)-1h-1,2,4-triazol-3-yl)benzyl)cyclopropanecarboxamide], the inhibition of growth at 300 ppm is greater than 70%.

Regarding `CN(Cc1ccc(-c2n[nH]c(C(F)(F)F)n2)cc1)C(=O)C1CCC1` [Compound 38, N-methyl-N-(4-(5-(trifluoromethyl)-1h-1,2,4-triazol-3-yl)benzyl)cyclobutanecarboxamide], the inhibition of growth at 300 ppm was greater than 70%.

As for `O=C(O)c1ccc(-c2cc(C(F)(F)F)on2)cc1` [Compound 56, 4-(5-(trifluoromethyl)isoxazol-3-yl)benzoic acid], the inhibition of growth at 300 ppm was greater than 70%.

As for `CS(=O)(=NC(=O)c1ccc(-c2cc(C(F)(F)F)on2)cc1)c1ccccn1` (stereo not drawn) [Compound 62, N-(methyl(oxo)(pyridin-2-yl)-λ^6-sulfaneylidene)-4-(5-(trifluoromethyl)isoxazol-3-yl)benzamide], the inhibition of growth at 300 ppm is greater than 70%.

On to `COc1ccc(S(C)(=O)=NC(=O)c2ccc(-c3coc(C(F)(F)F)n3)cc2)cc1` (stereo not drawn) [Compound 78, N-((4-methoxyphenyl)(methyl)(oxo)-λ^6-sulfaneylidene)-4-(2-(trifluoromethyl)oxazol-4-yl)benzamide], for which the inhibition of growth at 300 ppm is greater than 70%.

Take `O=C(Nc1ccccc1)c1ccc(-c2coc(C(F)(F)F)n2)cc1` [Compound 81, N-phenyl-4-(2-(trifluoromethyl)oxazol-4-yl)benzamide]: the inhibition of growth at 300 ppm is greater than 70%.
